Measured values as given in patent US9433621B2, “Substituted pyridine and pyrimidine derivatives and their use in treating viral infections” (Merck Sharp & Dohme Corp., priority 2010, dated 2016).

tested on: HCV replicon; assay: Cell-Based HCV Replicon Assay; conditions: Hepatitis C virus, 72 h; Table IV; replicon cells, day 3, real time PCR; EC90 = concentration for ΔCT=3.2 over baseline; read-out: EC90
Method in brief: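 EC50 and EC90 taken from sigmoid fits of ΔCT (5B minus GAPDH) as the concentrations raising ΔCT by 1 and 3.2 over baseline, via multiplex real-time RT-PCR on lysates after 3 days. Replicon cells at 5000/well; 10 two-fold dilutions from 25–1 μM, 0.5% DMSO, 10% FBS.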

Compound | EC90 [µM]
CO[C@@H](C)CNc1nc(C)c(-c2nc3c(C)nccc3s2)c(N[C@@H]2C[C@H](C(C)(C)O)[C@@H](O)[C@H]2O)n1 [Example 3031] | 0.104
Cc1nc(NCc2c(F)cccc2F)nc(N[C@@H]2C[C@H](CC#N)[C@@H](O)[C@H]2O)c1-c1nc2c(C3CC3)nccc2s1 [Example 3569] | 0.016

same assay, conditions: Hepatitis C virus, 72 h; Table V, cells printed as numeric bound instead of code; replicon cells, day 3, real time PCR; read-out: EC90 (uM) range

Compound | EC90 [µM]
CS(=O)(=O)C[C@H]1C[C@@H](Nc2nc(NC3CCC3)ncc2-c2nc3c(C4CC4)nccc3s2)[C@H](O)[C@@H]1O [Example 4922] | > 0.3

same assay, conditions: Hepatitis C virus, 72 h; Table V, class codes; replicon cells, day 3, real time PCR; EC90 = concentration for ΔCT=3.2 over baseline; read-out: EC90 (uM) range

Compound | EC90 [µM]
Cc1nc(NCC2CC2)nc(N[C@@H]2C[C@H](C(=O)Nc3nccs3)[C@@H](O)[C@H]2O)c1-c1nc2c(C3CC3)nccc2s1 [Example 4927] | < 0.5
CCSCCNc1ncc(-c2nc3c(C)nccc3s2)c(N[C@@H]2C[C@H](C(C)(C)O)[C@@H](O)[C@H]2O)n1 [Example 4936] | < 0.5
Cc1ccc([C@@H](C)Nc2nc(C)c(-c3nc4cnc(C)cc4s3)c(N[C@@H]3C[C@H](CO)[C@@H](O)[C@H]3O)n2)cc1 [Example 4913] | < 0.5
Cc1nc(NCC2CC2)nc(N[C@@H]2C[C@H](C(=O)Nc3ccccc3)[C@@H](O)[C@H]2O)c1-c1nc2c(C3CC3)nccc2s1 [Example 4950] | < 0.5
Cc1nc(NCC2CC2)nc(N[C@@H]2C[C@H](CO)[C@@H](O)[C@H]2O)c1-c1nc2cnc(C3CC3)cc2s1 [Example 4942] | < 0.5
COCCNc1ncc(-c2nc3c(C4CC4)nccc3s2)c(N[C@@H]2C[C@H](CS(C)(=O)=O)[C@@H](O)[C@H]2O)n1 [Example 4916] | 0.5 to 5
Cc1nc(N[C@H](C)c2ccc(F)cc2)nc(N[C@@H]2C[C@H](CO)[C@@H](O)[C@H]2O)c1-c1nc2c(C3CC3)nccc2s1 [Example 4932] | < 0.5
Cc1nc(N[C@H](C)c2ccc(OC(F)(F)F)cc2)nc(N[C@@H]2C[C@H](C(=O)Nc3ccncc3)[C@@H](O)[C@H]2O)c1-c1nc2c(C3CC3)nccc2s1 [Example 4955] | < 0.5
COCCNc1nc(C)c(-c2nc3c(C4CC4)nccc3s2)c(N[C@@H]2C[C@H](C(=O)NC(C)(C)C)[C@@H](O)[C@H]2O)n1 [Example 4930] | < 0.5
COCCNc1nc(C)c(-c2nc3cnc(C4CC4)cc3s2)c(N[C@@H]2C[C@H](CO)[C@@H](O)[C@H]2O)n1 [Example 4943] | < 0.5
COCCNc1nc(C)c(-c2nc3cnc(C)cc3s2)c(N[C@@H]2C[C@H](CO)[C@@H](O)[C@H]2O)n1 [Example 4946] | < 0.5
Cc1cccc([C@@H](C)Nc2nc(C)c(-c3nc4c(C5CC5)nccc4s3)c(N[C@@H]3C[C@H](CO)[C@@H](O)[C@H]3O)n2)c1 [Example 4933] | < 0.5
CS(=O)(=O)C[C@H]1C[C@@H](Nc2nc(N)ncc2-c2nc3c(C4CC4)nccc3s2)[C@H](O)[C@@H]1O [Example 4919] | < 0.5

same assay, conditions: Hepatitis C virus; HCV Replicon assay, EC90 given as numeric bound, Table VI; read-out: EC90

Compound | EC90 [µM]
COCC1(Nc2nc(C)c(-c3nc4c(C)nccc4s3)c(N[C@@H]3C[C@H](C(C)(C)O)[C@@H](O)[C@H]3O)n2)CCCCC1 [Example 5198] | > 1

same assay, conditions: Hepatitis C virus; HCV Replicon assay, EC90 range, Table VI; read-out: EC90

Compound | EC90 [µM]
Cc1nc(N[C@H](C)c2c(F)c(F)c(C)c(F)c2F)nc(N[C@@H]2C[C@H](CS(C)(=O)=O)[C@@H](O)[C@H]2O)c1-c1nc2c(C3CC3)nccc2s1 [Example 5205] | < 0.5
COc1nc(C)c(-c2nc3c(C4CC4)nccc3s2)c(N[C@@H]2C[C@H](C(C)(F)F)[C@@H](O)[C@H]2O)n1 [Example 5187] | 5 to 25
Cc1nc(N[C@@H]2CCCC[C@H]2O)nc(N[C@@H]2C[C@H](CO)[C@@H](O)[C@H]2O)c1-c1nc2c(C)nccc2s1 [Example 5148] | < 0.5
Cc1nc(NC2CCC2)nc(N[C@@H]2C[C@H](C(C)(C)S(C)(=O)=O)[C@@H](O)[C@H]2O)c1-c1nc2c(C3CC3)nccc2s1 [Example 5064] | < 0.5
Cc1nc(N[C@H](C)c2c(F)c(F)c(C)c(F)c2F)nc(N[C@@H]2C[C@H](C(C)(C)O)[C@@H](O)[C@H]2O)c1-c1nc2c(C)nccc2s1 [Example 5204] | < 0.5
CO[C@H](C)CNc1nc(C)c(-c2nc3c(C)nccc3s2)c(N[C@@H]2C[C@H](COc3cc(F)c(F)cc3F)[C@@H](O)[C@H]2O)n1 [Example 5034] | < 0.5
COC[C@@H](C)Nc1nc(C)c(-c2nc3c(C)nccc3s2)c(N[C@@H]2C[C@H](CC(C)(C)O)[C@@H](O)[C@H]2O)n1 [Example 5310] | < 0.5
Cc1nc(NCC2CCC2)nc(N[C@@H]2C[C@H](C(F)F)[C@@H](O)[C@H]2O)c1-c1nc2c(C3CC3)nccc2s1 [Example 5185] | < 0.5
COCCNc1nc(C)c(-c2nc3c(C)nccc3s2)c(NC2(C)CCC2)n1 [Example 5215] | < 0.5
Cc1nc(NCC(F)(F)C(F)(F)F)nc(N[C@@H]2C[C@H](CO)[C@@H](O)[C@H]2O)c1-c1nc2c(C3CC3)nccc2s1 [Example 5224] | < 0.5
Cc1nc(NCC2CC2)nc(N[C@@H]2C[C@H](c3nccs3)[C@@H](O)[C@H]2O)c1-c1nc2c(C)nccc2s1 [Example 5295] | < 0.5
CCS(=O)(=O)C(C)(C)[C@H]1C[C@@H](Nc2nc(NCC3CC3)nc(C)c2-c2nc3c(C4CC4)nccc3s2)[C@H](O)[C@@H]1O [Example 5059] | < 0.5
Cc1nc(NCc2c(F)cc(F)cc2F)nc(N[C@@H]2C[C@H](C(C)(C)S(C)(=O)=O)[C@@H](O)[C@H]2O)c1-c1nc2c(C)nccc2s1 [Example 5063] | < 0.5
Cc1nc(NCc2cc(F)c(F)cc2F)nc(N[C@@H]2C[C@H]([C@H](O)C(C)C)[C@@H](O)[C@H]2O)c1-c1nc2c(C)nccc2s1 [Example 5106] | < 0.5
Cc1nc(NCC2CC(F)(F)C2)nc(N[C@@H]2C[C@H](CC(C)(C)O)[C@@H](O)[C@H]2O)c1-c1nc2c(C)nccc2s1 [Example 5312] | < 0.5
COCCNc1nc(C)c(-c2nc3c(C)nccc3s2)c(NC2(CO)CCCC2)n1 [Example 5131] | < 0.5
COC1(CCNc2nc(C)c(-c3nc4c(C)nccc4s3)c(N[C@@H]3C[C@H](C(C)(C)O)[C@@H](O)[C@H]3O)n2)CCCC1 [Example 5101] | < 0.5
CO[C@@H](CNc1nc(C)c(-c2nc3cnccc3s2)c(N[C@@H]2C[C@H](C(C)(C)O)[C@@H](O)[C@H]2O)n1)c1ccc(F)cc1 [Example 5228] | < 0.5
Cc1nc(NCC2CCC2)nc(N[C@@H]2C[C@H](NC(=O)NC(C)(C)C)[C@@H](O)[C@H]2O)c1-c1nc2c(C3CC3)nccc2s1 [Example 5100] | < 0.5

Compound | EC90 [µM]
COC(=O)NC(C)(C)[C@H]1C[C@@H](Nc2nc(NC3CC3)nc(C)c2-c2nc3c(C)nccc3s2)[C@H](O)[C@@H]1O [Example 5050] | < 0.5
CO[C@H]1C[C@H]([C@@H](C)Nc2nc(C)c(-c3nc4c(C5CC5)nccc4s3)c(N[C@@H]3C[C@H](CO)[C@@H](O)[C@H]3O)n2)C1 [Example 5303] | < 0.5
Cc1nc(NCC(F)(F)C(F)(F)C(F)(F)F)nc(N[C@H]2C=C[C@@H](CO)C2)c1-c1nc2c(C)nccc2s1 [Example 5164] | < 0.5
Cc1nc(NCc2c(F)cccc2F)nc(N[C@@H]2C[C@H](NC(=O)NCc3ccccc3F)[C@@H](O)[C@H]2O)c1-c1nc2c(C3CC3)nccc2s1 [Example 5082] | 0.5 to 5
Cc1nc(NCC2CC2)nc(NC2(CO)CCCC2)c1-c1nc2c(C)nccc2s1 [Example 5132] | < 0.5
Cc1nc(NCCS(N)(=O)=O)nc(N[C@@H]2C[C@H](C(C)(C)O)[C@@H](O)[C@H]2O)c1-c1nc2c(C)nccc2s1 [Example 5281] | 0.5 to 5
CO[C@H](C)CNc1nc(C)c(-c2nc3c(C)nccc3s2)c(N[C@@H]2C[C@H](CC(C)(C)O)[C@@H](O)[C@H]2O)n1 [Example 5311] | < 0.5
Cc1nc(NCc2c(F)cc(F)cc2F)nc(N[C@@H]2C[C@H](C(C)(C)S(C)(=O)=O)[C@@H](O)[C@H]2O)c1-c1nc2c(C3CC3)nccc2s1 [Example 5065] | < 0.5
Cc1ccc(S(=O)(=O)C[C@H]2C[C@@H](Nc3nc(NC4CC4)nc(C)c3-c3nc4c(C)nccc4s3)[C@H](O)[C@@H]2O)cc1F [Example 5003] | < 0.5
Cc1nc(NCC2CC2)nc(N[C@H]2C=C[C@@H](CO)C2)c1-c1nc2c(C)nccc2s1 [Example 5157] | < 0.5
CO[C@H](C)CNc1nc(C)c(-c2nc3c(C)nccc3s2)c(N[C@@H]2C[C@H](COc3c(F)ccc(F)c3F)[C@@H](O)[C@H]2O)n1 [Example 5033] | < 0.5
Cc1nc(NCC(F)(F)C(F)(F)F)nc(N[C@@H]2C[C@H](C3(O)CCCC3)[C@@H](O)[C@H]2O)c1-c1nc2c(C)nccc2s1 [Example 5114] | < 0.5
CCO[C@H]1C[C@H](CNc2nc(C)c(-c3nc4c(C)nccc4s3)c(N[C@@H]3C[C@H](CC(C)(C)O)[C@@H](O)[C@H]3O)n2)C1 [Example 5306] | < 0.5
Cc1nc(N[C@H](C)C2CCC2)nc(N[C@@H]2C[C@H](C(F)F)[C@@H](O)[C@H]2O)c1-c1nc2c(C3CC3)nccc2s1 [Example 5186] | < 0.5
Cc1nc(NCC(F)(F)C(F)(F)F)nc(N[C@@H]2C[C@H](CS(C)(=O)=O)[C@@H](O)[C@H]2O)c1-c1nc2c(C3CC3)nccc2s1 [Example 5223] | < 0.5
CO[C@H]1C[C@@H]([C@@H](C)Nc2nc(C)c(-c3nc4c(C5CC5)nccc4s3)c(N[C@@H]3C[C@H](CO)[C@@H](O)[C@H]3O)n2)C1 [Example 5299] | < 0.5
CO[C@H](C)CNc1nc(C)c(-c2nc3c(C4CC4)nccc3s2)c(N[C@@H]2C[C@H](C(N)=O)[C@@H](O)[C@H]2O)n1 [Example 5086] | < 0.5
CO[C@@H]1CCC[C@@H]1Nc1nc(C)c(-c2nc3c(C)nccc3s2)c(N[C@@H]2C[C@H](C(C)(C)O)[C@@H](O)[C@H]2O)n1 [Example 5144] | 0.5 to 5
Cc1nc(NCCS(C)(=O)=O)nc(N[C@@H]2C[C@H](C(C)(C)O)[C@@H](O)[C@H]2O)c1-c1nc2c(C)nccc2s1 [Example 5249] | 0.5 to 5
